#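 Here, GI50 denotes the concentration required for 50% inhibition of growth. TGI denotes the concentration required for complete inhibition of growth.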
# What was measured:
# Assay in all cases: NCI-60 cell line screen, 384-well format
# [1] = tested on: 786-0 renal
# [2] = tested on: A498 renal
# [3] = tested on: A549 NSCLC
# [4] = tested on: ACHN renal
# [5] = tested on: BT-549 breast
# [6] = tested on: CAKI-1 renal
# [7] = tested on: COLO 205 colon
# [8] = tested on: DU-145 prostate
# [9] = tested on: EKVX NSCLC
# [10] = tested on: HCT-116 colon
# [11] = tested on: HCT-15 colon
# [12] = tested on: HL-60(TB) leukemia
# [13] = tested on: HOP-62 NSCLC
# [14] = tested on: HOP-92 NSCLC
# [15] = tested on: HS 578T breast
# [16] = tested on: HT29 colon
# [17] = tested on: IGROV1 ovarian
# [18] = tested on: K-562 leukemia
# [19] = tested on: KM12 colon
# [20] = tested on: M14 melanoma
# [21] = tested on: MALME-3M melanoma
# [22] = tested on: MCF7 breast
# [23] = tested on: MDA-MB-231 breast
# [24] = tested on: MDA-MB-435 melanoma
# [25] = tested on: MDA-MB-468 breast
# [26] = tested on: MOLT-4 leukemia
# [27] = tested on: NCI-H226 lung
# [28] = tested on: NCI-H23 lung
# [29] = tested on: NCI-H322M lung
# [30] = tested on: NCI-H460 NSCLC
# [31] = tested on: NCI-H522 lung
# [32] = tested on: OVCAR-3 ovarian
# [33] = tested on: OVCAR-4 ovarian
# [34] = tested on: OVCAR-5 ovarian
# [35] = tested on: OVCAR-8 ovarian
# [36] = tested on: PC-3 prostate
# [37] = tested on: RXF 393 renal
# [38] = tested on: SF-268 CNS
# [39] = tested on: SF-295 CNS
# [40] = tested on: SF-539 CNS
# [41] = tested on: SK-MEL-2 melanoma
# [42] = tested on: SK-MEL-28 melanoma
# [43] = tested on: SK-MEL-5 melanoma
# [44] = tested on: SK-OV-3 ovarian
# [45] = tested on: SN12C renal
# [46] = tested on: SNB-19 CNS
# [47] = tested on: SNB-75 CNS
# [48] = tested on: SR leukemia
# [49] = tested on: SW-620 colon
# [50] = tested on: T-47D breast
# [51] = tested on: TK-10 renal
# [52] = tested on: U251 glioblastoma
# [53] = tested on: UACC-257 melanoma
# [54] = tested on: UACC-62 melanoma
# [55] = tested on: UO-31 renal
# [56] = tested on: HCC-2998 colon
# [57] = tested on: LOX IMVI melanoma
# [58] = tested on: NCI/ADR-RES ovarian
# [59] = tested on: RPMI-8226 leukemia
smiles,measurement,setting,value
Cn1cc(-c2ccc(CNc3cc(-c4cnc5cc(OCCCN6CCCC6)ccn45)ncn3)cc2)cn1,GI50,[1],1.54 µM
same,TGI,[1],2.89 µM
same,GI50,[2],1.78 µM
same,TGI,[2],3.18 µM
same,GI50,[3],1.82 µM
same,TGI,[3],3.23 µM
same,GI50,[4],1.81 µM
same,TGI,[4],3.21 µM
same,GI50,[5],1.62 µM
same,TGI,[5],2.98 µM
same,GI50,[6],1.86 µM
same,TGI,[6],3.26 µM
same,GI50,[7],2.01 µM
same,TGI,[7],3.45 µM
same,GI50,[8],1.82 µM
same,TGI,[8],3.34 µM
same,GI50,[9],1.67 µM
same,TGI,[9],3.06 µM
same,GI50,[10],1.63 µM
same,TGI,[10],3.02 µM
same,GI50,[11],1.77 µM
same,TGI,[11],3.2 µM
same,GI50,[12],1.56 µM
same,TGI,[12],2.9 µM
same,GI50,[13],1.63 µM
same,TGI,[13],3 µM
same,GI50,[14],1.84 µM
same,TGI,[14],3.25 µM
same,GI50,[15],1.58 µM
same,TGI,[15],2.93 µM
same,GI50,[16],0.969 µM
same,TGI,[16],2.15 µM
same,GI50,[17],1.88 µM
same,TGI,[17],3.34 µM
same,GI50,[18],1.5 µM
same,TGI,[18],2.85 µM
same,GI50,[19],1.85 µM
same,TGI,[19],3.29 µM
same,GI50,[20],1.84 µM
same,TGI,[20],3.24 µM
same,GI50,[21],1.83 µM
same,TGI,[21],3.23 µM
same,GI50,[22],1.36 µM
same,TGI,[22],2.67 µM
same,GI50,[23],1.61 µM
same,TGI,[23],2.97 µM
same,GI50,[24],1.77 µM
same,TGI,[24],3.17 µM
same,GI50,[25],1.8 µM
same,TGI,[25],3.21 µM
same,GI50,[26],1.5 µM
same,TGI,[26],2.83 µM
same,GI50,[27],1.69 µM
same,TGI,[27],3.06 µM
same,GI50,[28],11.3 µM
same,TGI,[28],23.5 µM
same,GI50,[29],1.92 µM
same,TGI,[29],3.57 µM
same,GI50,[30],1.32 µM
same,TGI,[30],2.62 µM
same,GI50,[31],2.09 µM
same,TGI,[31],3.53 µM
same,GI50,[32],1.84 µM
same,TGI,[32],3.25 µM
same,GI50,[33],1.55 µM
same,TGI,[33],2.91 µM
same,GI50,[34],1.69 µM
same,TGI,[34],3.09 µM
same,GI50,[35],1.72 µM
same,TGI,[35],3.11 µM
same,GI50,[36],1.7 µM
same,TGI,[36],3.28 µM
same,GI50,[37],1.53 µM
same,TGI,[37],2.87 µM
same,GI50,[38],1.85 µM
same,TGI,[38],3.28 µM
same,GI50,[39],1.81 µM
same,TGI,[39],3.22 µM
same,GI50,[40],1.18 µM
same,TGI,[40],2.41 µM
same,GI50,[41],1.84 µM
same,TGI,[41],3.24 µM
same,GI50,[42],1.82 µM
same,TGI,[42],3.22 µM
same,GI50,[43],1.49 µM
same,TGI,[43],2.82 µM
same,GI50,[44],1.8 µM
same,TGI,[44],3.21 µM
same,GI50,[45],1.77 µM
same,TGI,[45],3.16 µM
same,GI50,[46],1.74 µM
same,TGI,[46],3.41 µM
same,GI50,[47],1.79 µM
same,TGI,[47],3.19 µM
same,GI50,[48],1.69 µM
same,TGI,[48],3.07 µM
same,GI50,[49],1.69 µM
same,TGI,[49],3.09 µM
same,GI50,[50],1.9 µM
same,TGI,[50],3.33 µM
same,GI50,[51],1.78 µM
same,TGI,[51],3.18 µM
same,GI50,[52],1.79 µM
same,TGI,[52],3.2 µM
same,GI50,[53],1.53 µM
same,TGI,[53],2.87 µM
same,GI50,[54],1.83 µM
same,TGI,[54],3.23 µM
same,GI50,[55],1.75 µM
same,TGI,[55],3.14 µM
CCc1c[nH]c2ncnc(N3CC[C@@](N)(CNC(=O)c4ccc(F)cc4F)C3)c12,GI50,[2],2.72 µM
same,TGI,[2],19.3 µM
same,GI50,[3],20.8 µM
same,TGI,[3],50.7 µM
same,GI50,[4],15.5 µM
same,TGI,[4],50 µM
same,GI50,[5],10.9 µM
same,TGI,[5],24.9 µM
same,GI50,[6],16.5 µM
same,TGI,[6],> 100 µM
same,GI50,[7],15.8 µM
same,TGI,[7],41.5 µM
same,GI50,[8],23.2 µM
same,TGI,[8],94.1 µM
same,GI50,[9],28.6 µM
same,TGI,[9],> 100 µM
same,GI50,[56],18.8 µM
same,TGI,[56],> 100 µM
same,GI50,[10],20.5 µM
same,TGI,[10],> 100 µM
same,GI50,[11],32 µM
same,TGI,[11],> 100 µM
same,GI50,[12],15.7 µM
same,TGI,[12],29.4 µM
same,GI50,[13],20 µM
same,TGI,[13],93 µM
same,GI50,[14],28.6 µM
same,TGI,[14],> 100 µM
same,GI50,[15],14.9 µM
same,TGI,[15],33.7 µM
same,GI50,[16],29.1 µM
same,TGI,[16],> 100 µM
same,GI50,[17],6.09 µM
same,TGI,[17],32.4 µM
same,GI50,[19],4.05 µM
same,TGI,[19],> 100 µM
same,GI50,[57],18.9 µM
same,TGI,[57],47.3 µM
same,GI50,[20],28.4 µM
same,TGI,[20],> 100 µM
same,GI50,[21],14.2 µM
same,TGI,[21],37.5 µM
same,GI50,[22],12.7 µM
same,TGI,[22],> 100 µM
same,GI50,[23],35.6 µM
same,TGI,[23],> 100 µM
same,GI50,[24],31.4 µM
same,TGI,[24],> 100 µM
same,GI50,[25],13.9 µM
same,TGI,[25],55.5 µM
same,GI50,[26],5.23 µM
same,TGI,[26],20.3 µM
same,GI50,[27],20.2 µM
same,TGI,[27],> 100 µM
same,GI50,[28],14.5 µM
same,TGI,[28],39.9 µM
same,GI50,[29],22 µM
same,TGI,[29],79.4 µM
same,GI50,[30],11.3 µM
same,TGI,[30],> 100 µM
same,GI50,[31],16.8 µM
same,TGI,[31],47.4 µM
same,GI50,[58],89 µM
same,TGI,[58],> 100 µM
same,GI50,[32],33.8 µM
same,TGI,[32],> 100 µM
same,GI50,[33],> 100 µM
same,TGI,[33],> 100 µM
same,GI50,[34],17.1 µM
same,TGI,[34],76 µM
same,GI50,[35],41.3 µM
same,TGI,[35],> 100 µM
same,GI50,[36],22.1 µM
same,TGI,[36],> 100 µM
same,GI50,[59],14.2 µM
same,TGI,[59],54.7 µM
same,GI50,[37],27.8 µM
same,TGI,[37],> 100 µM
same,GI50,[38],48.3 µM
same,TGI,[38],> 100 µM
same,GI50,[39],29.1 µM
same,TGI,[39],> 100 µM
same,GI50,[40],11.9 µM
same,TGI,[40],> 100 µM
same,GI50,[42],25.5 µM
same,TGI,[42],> 100 µM
same,GI50,[43],11 µM
same,TGI,[43],28.4 µM
same,GI50,[44],13.6 µM
same,TGI,[44],> 100 µM
same,GI50,[45],23.3 µM
same,TGI,[45],88.5 µM
same,GI50,[46],61.9 µM
same,TGI,[46],> 100 µM
same,GI50,[47],31.3 µM
same,TGI,[47],> 100 µM
same,TGI,[48],0.816 µM
same,GI50,[50],35.3 µM
same,TGI,[50],> 100 µM
same,GI50,[51],13.5 µM
same,TGI,[51],42.8 µM
same,GI50,[52],37.4 µM
same,TGI,[52],> 100 µM
same,GI50,[53],16.5 µM
same,TGI,[53],37 µM
same,GI50,[54],18.9 µM
same,TGI,[54],59.2 µM

# Reference: PubChem BioAssay (NCI)
